Measurements reported in patent publication US10588317B2, “Isoxazoline-substituted benzamides and analogues as insecticides” (priority 2015, dated 2020).
Read-outs that look alike come from different tables or passages of the source.

How the values were obtained:
Assay type in all cases: in vivo
[1] = tested on: Diabrotica balteata; experiment: Diabrotica balteata (corn root worm), sprayed maize sprouts; details: 96 h, read-out: effect in at least one of the two categories (mortality or growth inhibition); for percent effect (mortality or growth inhibition) at 200 ppm: application rate 200 ppm, L2 larvae, 4 days after infestation
How it was run: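 Read-out at 4 days post-infestation: mortality and growth inhibition relative to untreated samples. Test solutions (200 ppm, from DMSO stocks) were sprayed onto agar-held maize sprouts, which after drying received 6–10 L2 larvae per well.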

[2] = tested on: Euschistus heros; experiment: Euschistus heros (neotropical brown stink bug), sprayed soybean leaves; details: 120 h, read-out: effect in at least one of the two categories (mortality or growth inhibition); for percent effect (mortality or growth inhibition) at 200 ppm: application rate 200 ppm, N2 nymphs, 5 days after infestation
How it was run: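 Scored 5 days post-infestation versus untreated controls, for both mortality and growth inhibition: N2 nymphs placed on agar-mounted soybean leaves previously sprayed at 200 ppm with aqueous test solutions from DMSO stocks and left to dry.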

[3] = tested on: Myzus persicae; experiment: Myzus persicae (green peach aphid): feeding/contact activity; details: 144 h
Experimental: (§1) Sunflower leaf discs were placed onto agar in a 24-well microtiter plate and sprayed with aqueous test solutions prepared from 10'000 ppm DMSO stock solutions. After drying, the leaf discs were infested with an aphid population of mixed ages. The samples were assessed for mortality 6 days after infestation.

[4] = tested on: Plutella xylostella; experiment: Plutella xylostella (diamond back moth), artificial diet; details: 120 h, read-out: effect in at least one of the two categories (mortality or growth inhibition); for percent effect (mortality or growth inhibition) at 200 ppm: application rate 200 ppm, L2 larvae, 5 days after infestation
How it was run: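 L2 larvae (10-15 per well) fed on compound-treated, dried artificial diet; test solutions diluted in water from 10'000 ppm DMSO stocks. Readout 5 days post-infestation as mortality or growth inhibition versus untreated diet, with at least 80% effect at 200 ppm as threshold.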

[5] = tested on: Spodoptera littoralis; experiment: Spodoptera littoralis (Egyptian cotton leaf worm), sprayed cotton leaf discs; details: foliar, 72 h, read-out: control (mortality, anti-feeding effect, growth inhibition)
How it was run: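 Five first-instar larvae placed on dried cotton leaf discs (on agar) previously sprayed with aqueous dilutions of 10'000 ppm DMSO stocks. Scored at 3 days against untreated discs for mortality, feeding inhibition and growth inhibition; any category above untreated counts as control.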

[6] = tested on: Tetranychus urticae; experiment: Tetranychus urticae (two-spotted spider mite): feeding/contact activity; details: 192 h
Experimental: Bean leaf discs on agar in 24-well microtiter plates were sprayed with aqueous test solutions prepared from 10'000 ppm DMSO stock solutions. After drying the leaf discs were infested with a mite population of mixed ages. The samples were assessed for mortality on mixed population (mobile stages) 8 days after infestation.

[7] = tested on: Thrips tabaci; experiment: Thrips tabaci (onion thrips): feeding/contact activity; details: 144 h
Experimental: as §1, with “on” for “onto”, “in” for “in a”, “plates” for “plate”, “drying” for “drying,”, “a Thrips” for “an aphid”

[8] = application rate 200 ppm, aphid population of mixed ages, 6 days after infestation, read-out: mortality
[9] = application rate 200 ppm, L1 larvae, 3 days after infestation
[10] = application rate 200 ppm, mixed population (mobile stages), 8 days after infestation, read-out: mortality
[11] = application rate 200 ppm, Thrips population of mixed ages, 6 days after infestation, read-out: mortality

Cc1cc(C2=NO[C@@](c3cc(Cl)c(F)c(Cl)c3)(C(F)(F)F)C2)ccc1C(=O)NC1CON(S(=O)(=O)N2CCCC2)C1 (stereo partly drawn) [Compound A99, 4-[(5S)-5-(3,5-dichloro-4-fluoro-phenyl)-5-(trifluoromethyl)-4H-isoxazol-3-yl]-2-methyl-N-(2-pyrrolidin-1-ylsulfonylisoxazolidin-4-yl)benzamide]
≥ 80%: percent effect (mortality or growth inhibition) at 200 ppm [1] | percent effect (mortality or growth inhibition) at 200 ppm [2] | mortality at 200 ppm [3, 8] | percent effect (mortality or growth inhibition) at 200 ppm [4] | mortality at 200 ppm [5, 9] | mortality at 200 ppm [6, 10] | mortality at 200 ppm [7, 11]

Cc1cc(C2=NO[C@@](c3cc(Cl)c(F)c(Cl)c3)(C(F)(F)F)C2)ccc1C(=O)NC1CON(S(=O)(=O)N(C)C(C)(C)C)C1 (stereo partly drawn) [Compound A100, N-[2-[tert-butyl(methyl)sulfamoyl]isoxazolidin-4-yl]-4-[(5S)-5-(3,5-dichloro-4-fluoro-phenyl)-5-(trifluoromethyl)-4H-isoxazol-3-yl]-2-methyl-benzamide]
≥ 80%: percent effect (mortality or growth inhibition) at 200 ppm [1] | percent effect (mortality or growth inhibition) at 200 ppm [2] | mortality at 200 ppm [3, 8] | percent effect (mortality or growth inhibition) at 200 ppm [4] | mortality at 200 ppm [5, 9] | mortality at 200 ppm [6, 10] | mortality at 200 ppm [7, 11]

Cc1cc(C2=NO[C@@](c3cc(Cl)c(Cl)c(Cl)c3)(C(F)(F)F)C2)ccc1C(=O)NC1CON(S(=O)(=O)NC(C)C)C1 (stereo partly drawn) [Compound A101, N-[2-(isopropylsulfamoyl)isoxazolidin-4-yl]-2-methyl-4-[(5S)-5-(3,4,5-trichlorophenyl)-5-(trifluoromethyl)-4H-isoxazol-3-yl]benzamide]
≥ 80%: percent effect (mortality or growth inhibition) at 200 ppm [1] | percent effect (mortality or growth inhibition) at 200 ppm [2] | mortality at 200 ppm [3, 8] | percent effect (mortality or growth inhibition) at 200 ppm [4] | mortality at 200 ppm [5, 9] | mortality at 200 ppm [6, 10] | mortality at 200 ppm [7, 11]

Cc1cc(C2=NO[C@@](c3cc(Cl)c(Cl)c(Cl)c3)(C(F)(F)F)C2)ccc1C(=O)NC1CON(S(=O)(=O)N(C)C(C)C)C1 (stereo partly drawn) [Compound A103, N-[2-[isopropyl(methyl)sulfamoyl]isoxazolidin-4-yl]-2-methyl-4-[(5S)-5-(3,4,5-trichlorophenyl)-5-(trifluoromethyl)-4H-isoxazol-3-yl]benzamide]
≥ 80%: percent effect (mortality or growth inhibition) at 200 ppm [1] | percent effect (mortality or growth inhibition) at 200 ppm [2] | mortality at 200 ppm [3, 8] | percent effect (mortality or growth inhibition) at 200 ppm [4] | mortality at 200 ppm [5, 9] | mortality at 200 ppm [6, 10] | mortality at 200 ppm [7, 11]

CCN(C(C)C)S(=O)(=O)N1CC(NC(=O)c2ccc(C3=NO[C@@](c4cc(Cl)c(Cl)c(Cl)c4)(C(F)(F)F)C3)cc2C)CO1 (stereo partly shown) [Compound A104]
≥ 80%: percent effect (mortality or growth inhibition) at 200 ppm [1] | percent effect (mortality or growth inhibition) at 200 ppm [2] | mortality at 200 ppm [3, 8] | percent effect (mortality or growth inhibition) at 200 ppm [4] | mortality at 200 ppm [5, 9] | mortality at 200 ppm [6, 10] | mortality at 200 ppm [7, 11]

Cc1cc(C2=NO[C@@](c3cc(Cl)c(Cl)c(Cl)c3)(C(F)(F)F)C2)ccc1C(=O)NC1CON(S(=O)(=O)F)C1 (stereo partly drawn) [Compound A106, 4-[[2-methyl-4-[(5S)-5-(3,4,5-trichlorophenyl)-5-(trifluoromethyl)-4H-isoxazol-3-yl]benzoyl]amino]isoxazolidine-2-sulfonyl fluoride]
≥ 80%: percent control (mortality or growth inhibition) at 200 ppm [1] | percent control (mortality or growth inhibition) at 200 ppm [2] | mortality at 200 ppm [3] | percent control (mortality or growth inhibition) at 200 ppm [4] | mortality at 200 ppm [5] | mortality at 200 ppm [6] | mortality at 200 ppm [7]

CCNS(=O)(=O)N1C[C@@H](NC(=O)c2ccc(C3=NO[C@@](c4cc(Cl)c(F)c(Cl)c4)(C(F)(F)F)C3)cc2Cl)CO1 [Compound A124, 2-chloro-4-[(5S)-5-(3,5-dichloro-4-fluoro-phenyl)-5-(trifluoromethyl)-4H-isoxazol-3-yl]-N-[(4R)-2-(ethylsulfamoyl)isoxazolidin-4-yl]benzamide]
≥ 80%: percent effect (mortality or growth inhibition) at 200 ppm [1] | percent effect (mortality or growth inhibition) at 200 ppm [2] | mortality at 200 ppm [3, 8] | percent effect (mortality or growth inhibition) at 200 ppm [4] | mortality at 200 ppm [5, 9] | mortality at 200 ppm [6, 10] | mortality at 200 ppm [7, 11]

CCN(C)S(=O)(=O)N1C[C@@H](NC(=O)c2ccc(C3=NO[C@@](c4cc(Cl)cc(Cl)c4)(C(F)(F)F)C3)cc2Cl)CO1 [Compound A129, 2-chloro-4-[(5S)-5-(3,5-dichlorophenyl)-5-(trifluoromethyl)-4H-isoxazol-3-yl]-N-[(4R)-2-[ethyl(methyl)sulfamoyl]isoxazolidin-4-yl]benzamide]
≥ 80%: percent effect (mortality or growth inhibition) at 200 ppm [1] | percent effect (mortality or growth inhibition) at 200 ppm [2] | mortality at 200 ppm [3, 8] | percent effect (mortality or growth inhibition) at 200 ppm [4] | mortality at 200 ppm [5, 9] | mortality at 200 ppm [6, 10] | mortality at 200 ppm [7, 11]

Cc1cc(C2=NO[C@@](c3cc(Cl)c(F)c(Cl)c3)(C(F)(F)F)C2)ccc1C(=O)N[C@H]1CON(S(=O)(=O)N2CCC2)C1 [Compound A148]
≥ 80%: percent effect (mortality or growth inhibition) at 200 ppm [1] | percent effect (mortality or growth inhibition) at 200 ppm [2] | mortality at 200 ppm [3, 8] | percent effect (mortality or growth inhibition) at 200 ppm [4] | mortality at 200 ppm [5, 9] | mortality at 200 ppm [6, 10] | mortality at 200 ppm [7, 11]

Cc1cc(C2=NO[C@@](c3cc(Cl)c(F)c(Cl)c3)(C(F)(F)F)C2)ccc1C(=O)N[C@H]1CON(S(=O)(=O)NCC(F)(F)F)C1 [Compound A149, 4-[(5S)-5-(3,5-dichloro-4-fluoro-phenyl)-5-(trifluoromethyl)-4H-isoxazol-3-yl]-2-methyl-N-[(4R)-2-(2,2,2-trifluoroethylsulfamoyl)isoxazolidin-4-yl]benzamide]
≥ 80%: percent effect (mortality or growth inhibition) at 200 ppm [1] | percent effect (mortality or growth inhibition) at 200 ppm [2] | mortality at 200 ppm [3, 8] | percent effect (mortality or growth inhibition) at 200 ppm [4] | mortality at 200 ppm [5, 9] | mortality at 200 ppm [6, 10] | mortality at 200 ppm [7, 11]

Cc1cc(C2=NO[C@@](c3cc(Cl)c(F)c(Cl)c3)(C(F)(F)F)C2)ccc1C(=O)N[C@H]1CON(S(=O)(=O)N(C)CC(F)(F)F)C1 [Compound A150, 4-[(5S)-5-(3,5-dichloro-4-fluoro-phenyl)-5-(trifluoromethyl)-4H-isoxazol-3-yl]-2-methyl-N-[(4R)-2-[methyl(2,2,2-trifluoroethyl)sulfamoyl]isoxazolidin-4-yl]benzamide]
≥ 80%: percent effect (mortality or growth inhibition) at 200 ppm [1] | percent effect (mortality or growth inhibition) at 200 ppm [2] | mortality at 200 ppm [3, 8] | percent effect (mortality or growth inhibition) at 200 ppm [4] | mortality at 200 ppm [5, 9] | mortality at 200 ppm [6, 10] | mortality at 200 ppm [7, 11]

CC(C)(C)OC(=O)NS(=O)(=O)N1C[C@@H](NC(=O)c2ccc(C3=NO[C@@](c4cc(Cl)cc(Cl)c4)(C(F)(F)F)C3)cc2Cl)CO1 [Compound A151, tert-butyl N-[(4R)-4-[[2-chloro-4-[(5S)-5-(3,5-dichlorophenyl)-5-(trifluoromethyl)-4H-isoxazol-3-yl]benzoyl]amino]isoxazolidin-2-yl]sulfonylcarbamate]
≥ 80%: percent effect (mortality or growth inhibition) at 200 ppm [1] | percent effect (mortality or growth inhibition) at 200 ppm [2] | mortality at 200 ppm [3, 8] | percent effect (mortality or growth inhibition) at 200 ppm [4] | mortality at 200 ppm [5, 9] | mortality at 200 ppm [6, 10] | mortality at 200 ppm [7, 11]

C#CCN(C(=O)OC(C)(C)C)S(=O)(=O)N1C[C@@H](NC(=O)c2ccc(C3=NO[C@@](c4cc(Cl)cc(Cl)c4)(C(F)(F)F)C3)cc2Cl)CO1 [Compound A152]
≥ 80%: percent effect (mortality or growth inhibition) at 200 ppm [1] | percent effect (mortality or growth inhibition) at 200 ppm [2] | mortality at 200 ppm [3, 8] | percent effect (mortality or growth inhibition) at 200 ppm [4] | mortality at 200 ppm [5, 9] | mortality at 200 ppm [6, 10] | mortality at 200 ppm [7, 11]
